# Results taken from PubChem BioAssay (NCI).
#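 These data come from cells grown in 96-well plates and exposed to compound for 48 hours at five concentrations. Definition used: TGI = concentration required for complete inhibition of growth.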
# Tests used:
# Assay in all cases: inhibition of tumour cell growth, NCI panel, 48 h
# [1] = tested on: RXF 393 renal
# [2] = tested on: KM12 colon
# [3] = tested on: CCRF-CEM leukemia
# [4] = tested on: K-562 leukemia
# [5] = tested on: SNB-75 CNS
# [6] = tested on: IGROV1 ovarian
# [7] = tested on: MDA-MB-435
# [8] = tested on: M14 melanoma
# [9] = tested on: A498 renal
# [10] = tested on: 786-0 renal
SMILES,TGI [1] [µM],TGI [2] [µM],TGI [3] [µM],TGI [4] [µM],TGI [5] [µM],TGI [6] [µM],TGI [7] [µM],TGI [8] [µM],TGI [9] [µM],TGI [10] [µM]
Cc1cc(C)c2c(n1)S(=O)(=O)N(CCCN1CCN(c3cccc(C(F)(F)F)c3)CC1)c1c-2nn(C)c1C,> 100,> 100,> 100,> 100,> 100,> 100,> 100,> 100,> 100,> 100
CCCCN1C(=O)c2c(-c3sccc3N)sc(-c3sccc3N)c2C1=O,41,> 100,> 31,> 100,34.6,> 100,> 100,> 100,76.8,21.1
O=S(=O)(O)ON=C1c2ccccc2-c2ccccc21,> 100,> 100,> 100,> 100,> 100,> 100,> 100,> 100,> 100,> 100
CCOC(=O)c1c(N2CCCC2)[nH]c(=O)c(C(c2ccco2)c2c(O)c(C(=O)OCC)c(N3CCCC3)[nH]c2=O)c1O,> 100,> 100,> 100,> 100,60.5,,> 100,> 100,> 100,> 100
Cc1cc(NC[C@H](O)[C@H](O)[C@H](O)CO)c(Sc2cc(=O)[nH]c(=O)[nH]2)cc1C,> 62.5,> 62.5,> 62.5,> 62.5,> 62.5,> 62.5,> 62.5,> 62.5,> 62.5,> 62.5
Cn1c2ccccc2c2c(=O)[nH]c(=O)[nH]c21,> 100,> 100,> 100,> 100,> 100,> 100,> 100,> 100,> 100,> 100
O=C(CCCCCCC(=O)Nc1cccnc1)NO,31,> 44.6,> 100,> 100,> 100,> 68.9,> 42.6,> 56,> 100,> 100
CCOC(=O)c1ccc(C(=O)/C(C(C)=O)=C2\CCCN2C)n1C,> 100,> 100,> 100,> 100,66.6,> 100,> 100,> 100,> 100,> 100
O=C1[C@@H]2[C@@H](c3ccccc3)[C@]2(Cl)C(=O)[C@H]2[C@H](c3ccccc3)[C@@]12Cl,> 100,> 100,> 100,> 100,> 100,> 100,> 100,> 100,> 100,> 100
CC(=C(C(N)=O)C(N)=O)C1C=C(c2cccs2)CC(c2ccc(Cl)cc2)=C1O (configuration not stated),> 100,> 100,79.4,> 100,> 100,> 100,> 100,> 100,> 100,> 100
CC(C)[Si](OC1=CCC[C@H]2NC(=O)[C@@H](Cc3ccccc3)[C@@]12C)(C(C)C)C(C)C,15,14.4,10.2,12.5,31.2,26.7,13.4,24.7,19.2,14.9
COc1ccc(OC)c(CC2CCc3nc(N)nc(N)c3C2)c1 (configuration not stated),4.37,> 100,> 100,> 100,27.2,28.1,54,24.3,62,4.46
Brc1ccc2c([C@H]3CN[C@@H](c4c[nH]c5cc(Br)ccc45)CN3)c[nH]c2c1,6.6,3.28,8.64,4.02,17.8,8.2,3.11,5.91,3.6,3.18
Cc1noc2nnn(-c3ccc(Cl)cc3)c(=O)c12,4.79,31.1,2.48,11.2,7.47,19.2,16.2,25.4,27.1,8.33
O=C(/C=C/c1cc(O)c(O)cc1O)OCCc1ccccc1,> 31.1,> 100,7.17,6.89,> 100,40.5,48.9,32.7,37.4,18.6
CC(=O)O[C@@H]1C2=C(C)C=C(O2)[C@H]2O[C@]2(C)C[C@H]2C=C(C(=O)O2)[C@H](OC(C)=O)CC1[C@@]1(C)CO1 (some centres not stated),36.8,> 100,29.6,36.5,> 100,30.8,71.8,64.2,> 100,77.1

SMILES,TGI [1] [µM],TGI [2] [µM],TGI [3] [µM],TGI [4] [µM],TGI [5] [µM],TGI [6] [µM],TGI [7] [µM],TGI [8] [µM],TGI [9] [µM],TGI [10] [µM]
CCOC(=O)NC(NC1=NCCS1)(C(=O)OCC)C(F)(F)F (configuration not stated),> 100,> 100,> 100,> 100,> 100,> 100,> 100,> 100,> 100,> 100
O=C/C=C/c1ccco1,> 100,> 100,> 100,> 100,> 100,> 100,> 100,> 100,> 100,> 100
CC1C2CC(C(S(=O)(=O)N3CCOCC3)/C2=N\O)C1(C)C (configuration not stated),> 100,> 100,> 100,> 100,> 100,> 100,> 100,> 100,> 100,> 100
CC(=O)N(O)[C@@H]1CC[C@H](n2cnc3c(N)ncnc32)C1,> 100,> 100,> 100,> 100,> 100,> 100,> 100,> 100,> 100,> 100
COC(=O)/C=C/c1ccc2c(c1)CC1(C2)Cc2cc3c(cc2C1=O)CCC3 (configuration not stated),84.9,> 100,> 100,> 100,71.3,> 100,> 100,> 100,> 100,68.7
O=C(/C=C/c1ccc(/C=C/C(=O)c2ccc(O)cc2)cc1)c1ccc(O)cc1,> 100,> 100,> 100,> 100,> 100,,> 100,> 100,> 100,> 100
Cc1cc(Cc2c(F)c(F)c(C(c3cc(C)no3)c3c(F)c(F)c(F)c(F)c3F)c(F)c2F)on1 (configuration not stated),8.08,> 100,> 100,> 100,> 100,> 100,> 41.9,> 100,> 100,> 100
CSCCCNC(=O)c1csc(-c2csc(C(CNC(=O)OC(C)(C)C)CNC(=O)OC(C)(C)C)n2)n1,> 100,> 100,44,> 100,> 100,> 100,> 100,> 100,> 100,> 100
COC(=O)c1ccc(C)cc1/C=C1\Cc2ccc(C)cc2C1=O,31.9,33.8,> 100,42.8,44,45.8,20.2,33.5,47.9,50
CC1(CCCO)CCCCCCCCCC(C)(CCCO)C1=O (configuration not stated),> 100,> 100,> 100,> 100,> 100,> 100,> 100,> 100,> 100,> 100
CSc1c(C#N)c(N)nc2c(N=Nc3ccc(Cl)cc3)c(N)nn12,5.79,11.8,5.47,4.75,15.3,3.46,28.1,47.6,> 100,7.1
NC1CC2NC3CCCCC3NC2CC1N (configuration not stated),94.5,> 100,> 100,> 100,> 100,> 100,> 100,> 100,79.4,> 100
COc1ccc(C(SCCO)(c2ccccc2)c2ccccc2)cc1,41,37,64.8,> 100,25.7,,27.1,21.3,33.3,27
CC(C)(C)c1cc(C2=NN(c3ccccc3)C(c3ccccc3)C2)cc(C(C)(C)C)c1O (configuration not stated),> 100,> 100,> 100,> 100,> 100,> 100,> 100,> 100,> 100,> 100
CN(C)c1nncc2[nH]cnc12,> 100,> 100,> 100,> 100,> 100,> 100,> 100,> 100,> 100,> 100
C#CC1(O)C(COP(=O)(O)OCC2OC(n3ccc(NCCCCCCCCCCCCCCCCCC)nc3=O)C(O)C2O)OC(n2ccc(N)nc2=O)C1O (configuration not stated),61.9,26.6,> 100,19.9,45.9,6.02,7.57,15.2,59.2,> 100
